Laboratory results published in ChEMBL document CHEMBL1145498, “A systematic interaction map of validated kinase inhibitors with Ser/Thr kinases” (Proc Natl Acad Sci U S A, 2007).

biological target: Serine/threonine-protein kinase 26 (Homo sapiens) (UniProt Q9P289)
Sequence (Q9P289 2-416 limits assumed): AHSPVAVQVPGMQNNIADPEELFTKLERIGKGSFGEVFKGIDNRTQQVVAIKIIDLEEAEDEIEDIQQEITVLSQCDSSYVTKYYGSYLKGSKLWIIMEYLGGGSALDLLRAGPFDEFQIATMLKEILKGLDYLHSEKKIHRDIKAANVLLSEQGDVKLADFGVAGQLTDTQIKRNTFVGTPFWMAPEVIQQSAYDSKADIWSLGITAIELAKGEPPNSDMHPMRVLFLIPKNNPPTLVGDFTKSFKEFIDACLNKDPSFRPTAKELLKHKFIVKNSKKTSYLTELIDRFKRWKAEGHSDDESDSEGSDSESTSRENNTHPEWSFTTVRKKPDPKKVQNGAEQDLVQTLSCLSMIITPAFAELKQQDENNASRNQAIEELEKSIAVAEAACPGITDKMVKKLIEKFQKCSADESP

ΔTm [°C] | Structure (SMILES)
2.5 | CC(C)c1cc(/C=C(\C#N)C(=O)NCCCc2ccccc2)cc(C(C)C)c1O
0 | CC(C)(C)c1cc(C=C2C(=O)C=CC2=O)cc(C(C)(C)C)c1O

biological target: Serine/threonine-protein kinase 26 (Homo sapiens) (UniProt Q9P289); remark: another data set of the same source

ΔTm [°C] | Structure (SMILES)
0.3 | CC(C)c1cc(/C=C(\C#N)C(=O)NCCCc2ccccc2)cc(C(C)C)c1O
0.5 | CC(C)(C)c1cc(C=C2C(=O)C=CC2=O)cc(C(C)(C)C)c1O

biological target: Serine/threonine-protein kinase OSR1 (Homo sapiens) (UniProt O95747)
Sequence (O95747 2-527 limits assumed): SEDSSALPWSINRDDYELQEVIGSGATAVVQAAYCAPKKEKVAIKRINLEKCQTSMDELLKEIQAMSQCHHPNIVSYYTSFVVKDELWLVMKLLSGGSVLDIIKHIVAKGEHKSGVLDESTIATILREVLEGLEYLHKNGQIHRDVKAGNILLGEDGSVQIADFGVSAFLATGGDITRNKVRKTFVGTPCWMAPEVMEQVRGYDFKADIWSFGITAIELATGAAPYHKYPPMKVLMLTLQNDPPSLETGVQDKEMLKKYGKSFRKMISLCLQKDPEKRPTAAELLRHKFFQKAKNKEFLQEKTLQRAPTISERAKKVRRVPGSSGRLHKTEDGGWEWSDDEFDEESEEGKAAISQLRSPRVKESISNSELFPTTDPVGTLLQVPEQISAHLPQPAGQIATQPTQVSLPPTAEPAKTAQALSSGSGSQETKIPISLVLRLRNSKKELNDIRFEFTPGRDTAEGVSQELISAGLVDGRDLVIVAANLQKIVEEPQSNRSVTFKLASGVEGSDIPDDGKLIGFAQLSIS

ΔTm [°C] | Structure (SMILES)
0.9 | CC(C)c1cc(/C=C(\C#N)C(=O)NCCCc2ccccc2)cc(C(C)C)c1O
0.3 | CC(C)(C)c1cc(C=C2C(=O)C=CC2=O)cc(C(C)(C)C)c1O

biological target: Mitogen-activated protein kinase 11 (Homo sapiens, UniProt Q15759)
Sequence (Q15759 whole entry): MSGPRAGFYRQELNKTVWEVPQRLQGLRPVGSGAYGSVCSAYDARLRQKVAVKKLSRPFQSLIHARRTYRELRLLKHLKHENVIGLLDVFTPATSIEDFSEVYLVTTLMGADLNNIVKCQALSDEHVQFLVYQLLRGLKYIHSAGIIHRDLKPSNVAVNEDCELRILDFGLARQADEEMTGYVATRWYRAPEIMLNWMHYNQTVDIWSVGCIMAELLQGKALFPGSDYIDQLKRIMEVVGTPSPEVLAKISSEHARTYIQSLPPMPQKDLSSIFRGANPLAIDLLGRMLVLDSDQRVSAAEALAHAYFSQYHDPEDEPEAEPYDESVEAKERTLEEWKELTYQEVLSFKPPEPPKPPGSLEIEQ

ΔTm [°C] | Structure (SMILES)
0.1 | CC(C)c1cc(/C=C(\C#N)C(=O)NCCCc2ccccc2)cc(C(C)C)c1O
-1.5 | CC(C)(C)c1cc(C=C2C(=O)C=CC2=O)cc(C(C)(C)C)c1O

biological target: Serine/threonine-protein kinase PAK 5 (Homo sapiens) (UniProt Q9P286)
Sequence (Q9P286 whole entry, looked up): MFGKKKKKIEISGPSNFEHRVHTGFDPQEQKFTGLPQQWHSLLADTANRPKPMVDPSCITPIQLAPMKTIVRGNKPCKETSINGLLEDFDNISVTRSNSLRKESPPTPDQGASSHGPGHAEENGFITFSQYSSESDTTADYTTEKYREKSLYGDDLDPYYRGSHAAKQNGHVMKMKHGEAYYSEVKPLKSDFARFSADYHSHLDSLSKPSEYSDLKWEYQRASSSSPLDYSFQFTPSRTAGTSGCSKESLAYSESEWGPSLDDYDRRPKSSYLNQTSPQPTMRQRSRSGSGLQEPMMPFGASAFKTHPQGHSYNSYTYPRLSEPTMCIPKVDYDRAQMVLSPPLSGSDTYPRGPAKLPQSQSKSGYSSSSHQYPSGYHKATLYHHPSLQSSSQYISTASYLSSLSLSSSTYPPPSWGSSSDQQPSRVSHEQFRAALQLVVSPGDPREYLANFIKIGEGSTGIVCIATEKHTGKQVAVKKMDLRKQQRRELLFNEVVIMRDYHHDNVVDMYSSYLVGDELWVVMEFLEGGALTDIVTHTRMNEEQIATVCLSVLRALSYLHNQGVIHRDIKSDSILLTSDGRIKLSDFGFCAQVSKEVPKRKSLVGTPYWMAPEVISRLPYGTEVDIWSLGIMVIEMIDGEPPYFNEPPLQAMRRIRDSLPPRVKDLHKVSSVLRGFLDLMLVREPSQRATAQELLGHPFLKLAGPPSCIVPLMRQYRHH

ΔTm [°C] | Structure (SMILES)
0.7 | CC(C)c1cc(/C=C(\C#N)C(=O)NCCCc2ccccc2)cc(C(C)C)c1O
0.2 | CC(C)(C)c1cc(C=C2C(=O)C=CC2=O)cc(C(C)(C)C)c1O

biological target: Dual specificity protein kinase CLK2 (Homo sapiens) (UniProt P49760)
Sequence (P49760 whole entry, looked up): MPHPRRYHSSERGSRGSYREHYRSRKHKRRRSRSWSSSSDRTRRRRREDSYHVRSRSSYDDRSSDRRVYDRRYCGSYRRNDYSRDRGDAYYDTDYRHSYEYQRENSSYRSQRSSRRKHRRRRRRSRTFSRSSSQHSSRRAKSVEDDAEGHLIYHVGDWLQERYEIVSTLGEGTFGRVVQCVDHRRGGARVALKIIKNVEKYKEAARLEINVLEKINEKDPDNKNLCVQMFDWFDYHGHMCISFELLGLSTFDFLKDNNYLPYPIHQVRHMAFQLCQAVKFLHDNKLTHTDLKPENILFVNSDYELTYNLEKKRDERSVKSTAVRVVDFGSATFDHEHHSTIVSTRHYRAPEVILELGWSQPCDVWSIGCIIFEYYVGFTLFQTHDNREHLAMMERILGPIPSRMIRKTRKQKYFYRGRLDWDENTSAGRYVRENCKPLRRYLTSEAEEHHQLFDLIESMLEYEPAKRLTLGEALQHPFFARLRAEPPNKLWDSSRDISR

ΔTm [°C] | Structure (SMILES)
1.3 | CC(C)c1cc(/C=C(\C#N)C(=O)NCCCc2ccccc2)cc(C(C)C)c1O
0.4 | CC(C)(C)c1cc(C=C2C(=O)C=CC2=O)cc(C(C)(C)C)c1O

biological target: T1, Myotonin-protein kinase (Homo sapiens) (UniProt Q09013)
T1 sequence (whole entry): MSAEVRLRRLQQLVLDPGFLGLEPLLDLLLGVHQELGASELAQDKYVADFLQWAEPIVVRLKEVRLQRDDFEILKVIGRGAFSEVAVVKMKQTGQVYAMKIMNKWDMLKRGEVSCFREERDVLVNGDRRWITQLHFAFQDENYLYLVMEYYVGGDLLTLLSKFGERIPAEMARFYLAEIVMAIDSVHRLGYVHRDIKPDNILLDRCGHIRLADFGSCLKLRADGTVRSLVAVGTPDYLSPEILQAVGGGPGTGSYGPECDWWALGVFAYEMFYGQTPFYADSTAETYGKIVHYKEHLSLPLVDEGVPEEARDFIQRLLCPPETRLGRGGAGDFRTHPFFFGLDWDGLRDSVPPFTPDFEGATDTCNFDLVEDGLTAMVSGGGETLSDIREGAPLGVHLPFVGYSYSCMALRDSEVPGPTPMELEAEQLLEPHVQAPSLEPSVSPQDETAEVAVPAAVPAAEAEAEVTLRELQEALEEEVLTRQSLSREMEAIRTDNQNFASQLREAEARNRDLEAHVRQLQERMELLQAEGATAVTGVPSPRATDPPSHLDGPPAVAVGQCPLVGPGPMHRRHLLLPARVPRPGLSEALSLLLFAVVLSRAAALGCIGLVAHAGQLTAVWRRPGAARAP

ΔTm [°C] | Structure (SMILES)
1 | CC(C)c1cc(/C=C(\C#N)C(=O)NCCCc2ccccc2)cc(C(C)C)c1O
1.4 | CC(C)(C)c1cc(C=C2C(=O)C=CC2=O)cc(C(C)(C)C)c1O

biological target: T2, Serine/threonine-protein kinase VRK1 (Homo sapiens) (UniProt Q99986)
T2 sequence (whole entry): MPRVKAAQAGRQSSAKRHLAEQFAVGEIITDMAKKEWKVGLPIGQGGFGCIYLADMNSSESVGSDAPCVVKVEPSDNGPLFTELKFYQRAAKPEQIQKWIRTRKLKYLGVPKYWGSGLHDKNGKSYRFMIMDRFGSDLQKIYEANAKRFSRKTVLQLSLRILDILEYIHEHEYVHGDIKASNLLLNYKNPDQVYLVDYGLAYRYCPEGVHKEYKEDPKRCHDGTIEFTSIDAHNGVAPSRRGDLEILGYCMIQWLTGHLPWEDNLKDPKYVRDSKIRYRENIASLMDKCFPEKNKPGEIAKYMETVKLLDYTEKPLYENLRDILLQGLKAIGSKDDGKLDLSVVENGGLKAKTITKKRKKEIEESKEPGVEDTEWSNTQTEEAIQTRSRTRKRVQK

ΔTm [°C] | Structure (SMILES)
1 | CC(C)c1cc(/C=C(\C#N)C(=O)NCCCc2ccccc2)cc(C(C)C)c1O
-0.6 | CC(C)(C)c1cc(C=C2C(=O)C=CC2=O)cc(C(C)(C)C)c1O

biological target: Serine/threonine-protein kinase pim-3 (Homo sapiens) (UniProt Q86V86)

ΔTm [°C] | Structure (SMILES)
0.3 | CC(C)c1cc(/C=C(\C#N)C(=O)NCCCc2ccccc2)cc(C(C)C)c1O
0.4 | CC(C)(C)c1cc(C=C2C(=O)C=CC2=O)cc(C(C)(C)C)c1O

biological target: Calcium/calmodulin-dependent protein kinase type II subunit gamma (Homo sapiens) (UniProt Q13555)
Sequence (Q13555 whole entry): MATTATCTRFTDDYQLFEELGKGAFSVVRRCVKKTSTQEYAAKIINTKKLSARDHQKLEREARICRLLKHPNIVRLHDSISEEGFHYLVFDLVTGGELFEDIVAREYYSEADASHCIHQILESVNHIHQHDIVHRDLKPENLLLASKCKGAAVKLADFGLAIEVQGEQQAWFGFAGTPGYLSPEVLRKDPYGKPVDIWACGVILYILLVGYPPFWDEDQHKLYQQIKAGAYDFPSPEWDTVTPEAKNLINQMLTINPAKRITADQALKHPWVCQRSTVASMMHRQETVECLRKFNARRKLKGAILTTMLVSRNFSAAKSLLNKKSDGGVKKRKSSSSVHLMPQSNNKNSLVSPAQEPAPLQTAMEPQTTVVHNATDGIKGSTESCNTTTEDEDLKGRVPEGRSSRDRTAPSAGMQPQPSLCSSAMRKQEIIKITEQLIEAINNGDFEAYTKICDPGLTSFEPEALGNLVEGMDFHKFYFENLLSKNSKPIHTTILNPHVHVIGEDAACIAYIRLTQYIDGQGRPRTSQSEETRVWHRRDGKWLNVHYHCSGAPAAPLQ

ΔTm [°C] | Structure (SMILES)
0.5 | CC(C)c1cc(/C=C(\C#N)C(=O)NCCCc2ccccc2)cc(C(C)C)c1O
0.3 | CC(C)(C)c1cc(C=C2C(=O)C=CC2=O)cc(C(C)(C)C)c1O

biological target: Serine/threonine-protein kinase 25 (Homo sapiens) (UniProt O00506)
Sequence (O00506 whole entry, looked up): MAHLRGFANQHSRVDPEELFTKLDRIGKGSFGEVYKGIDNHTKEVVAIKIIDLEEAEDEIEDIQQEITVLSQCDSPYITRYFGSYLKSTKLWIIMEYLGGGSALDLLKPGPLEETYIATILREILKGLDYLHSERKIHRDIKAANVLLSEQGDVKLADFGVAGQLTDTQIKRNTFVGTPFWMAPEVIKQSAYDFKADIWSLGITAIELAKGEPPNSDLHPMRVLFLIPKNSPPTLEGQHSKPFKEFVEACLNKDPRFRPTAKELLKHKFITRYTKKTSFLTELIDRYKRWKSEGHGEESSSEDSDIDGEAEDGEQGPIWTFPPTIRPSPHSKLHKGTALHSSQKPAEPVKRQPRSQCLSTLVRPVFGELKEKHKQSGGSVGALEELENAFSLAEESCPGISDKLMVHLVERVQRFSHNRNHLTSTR

ΔTm [°C] | Structure (SMILES)
0.7 | CC(C)c1cc(/C=C(\C#N)C(=O)NCCCc2ccccc2)cc(C(C)C)c1O
0.6 | CC(C)(C)c1cc(C=C2C(=O)C=CC2=O)cc(C(C)(C)C)c1O

biological target: T3, Serine/threonine-protein kinase 17A (Homo sapiens) (UniProt Q9UEE5)
T3 sequence (whole entry): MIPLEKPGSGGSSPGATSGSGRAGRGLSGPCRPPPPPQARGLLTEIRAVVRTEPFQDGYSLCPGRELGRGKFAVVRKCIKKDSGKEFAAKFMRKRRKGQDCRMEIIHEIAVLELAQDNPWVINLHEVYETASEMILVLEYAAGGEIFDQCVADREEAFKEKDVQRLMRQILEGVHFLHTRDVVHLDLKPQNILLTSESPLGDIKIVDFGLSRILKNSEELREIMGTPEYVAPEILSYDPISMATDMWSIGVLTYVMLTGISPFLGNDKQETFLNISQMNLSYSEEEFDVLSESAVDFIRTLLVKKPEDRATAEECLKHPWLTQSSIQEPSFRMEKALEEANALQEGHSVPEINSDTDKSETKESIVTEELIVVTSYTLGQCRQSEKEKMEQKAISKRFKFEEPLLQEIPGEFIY

ΔTm [°C] | Structure (SMILES)
0.8 | CC(C)c1cc(/C=C(\C#N)C(=O)NCCCc2ccccc2)cc(C(C)C)c1O
-5.3 | CC(C)(C)c1cc(C=C2C(=O)C=CC2=O)cc(C(C)(C)C)c1O

biological target: Serine/threonine-protein kinase pim-1 (Homo sapiens) (UniProt P11309)
Sequence (P11309 whole entry, looked up): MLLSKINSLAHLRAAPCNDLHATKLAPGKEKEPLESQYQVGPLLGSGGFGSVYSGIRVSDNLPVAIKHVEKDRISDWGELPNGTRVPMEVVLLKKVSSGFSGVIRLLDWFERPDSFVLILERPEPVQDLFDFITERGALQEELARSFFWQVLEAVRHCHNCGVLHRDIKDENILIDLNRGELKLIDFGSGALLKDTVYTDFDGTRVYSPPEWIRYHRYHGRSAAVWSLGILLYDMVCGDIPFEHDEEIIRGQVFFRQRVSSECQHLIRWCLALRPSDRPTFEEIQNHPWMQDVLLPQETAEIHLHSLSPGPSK

ΔTm [°C] | Structure (SMILES)
0.8 | CC(C)c1cc(/C=C(\C#N)C(=O)NCCCc2ccccc2)cc(C(C)C)c1O
-1.1 | CC(C)(C)c1cc(C=C2C(=O)C=CC2=O)cc(C(C)(C)C)c1O

biological target: Serine/threonine-protein kinase pim-2 (Homo sapiens, UniProt Q9P1W9)
Sequence (Q9P1W9 whole entry, looked up): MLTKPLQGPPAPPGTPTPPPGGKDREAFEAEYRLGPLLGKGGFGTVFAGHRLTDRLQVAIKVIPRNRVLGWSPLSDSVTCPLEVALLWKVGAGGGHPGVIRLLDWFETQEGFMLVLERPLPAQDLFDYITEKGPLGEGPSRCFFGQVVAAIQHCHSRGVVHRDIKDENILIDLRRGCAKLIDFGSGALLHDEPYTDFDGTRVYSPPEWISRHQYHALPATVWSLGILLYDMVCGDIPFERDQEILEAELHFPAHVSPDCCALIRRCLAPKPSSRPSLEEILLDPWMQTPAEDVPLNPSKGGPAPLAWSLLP

ΔTm [°C] | Structure (SMILES)
0.7 | CC(C)c1cc(/C=C(\C#N)C(=O)NCCCc2ccccc2)cc(C(C)C)c1O
-5.7 | CC(C)(C)c1cc(C=C2C(=O)C=CC2=O)cc(C(C)(C)C)c1O

biological target: Ribosomal protein S6 kinase alpha-3 (Homo sapiens) (UniProt P51812)

ΔTm [°C] | Structure (SMILES)
0.2 | CC(C)c1cc(/C=C(\C#N)C(=O)NCCCc2ccccc2)cc(C(C)C)c1O
-5 | CC(C)(C)c1cc(C=C2C(=O)C=CC2=O)cc(C(C)(C)C)c1O

biological target: Calcium/calmodulin-dependent protein kinase type II subunit delta (Homo sapiens) (UniProt Q13557)

ΔTm [°C] | Structure (SMILES)
1 | CC(C)c1cc(/C=C(\C#N)C(=O)NCCCc2ccccc2)cc(C(C)C)c1O
2.1 | CC(C)(C)c1cc(C=C2C(=O)C=CC2=O)cc(C(C)(C)C)c1O

biological target: Calcium/calmodulin-dependent protein kinase type 1D (Homo sapiens) (UniProt Q8IU85)
Sequence (Q8IU85 whole entry, looked up): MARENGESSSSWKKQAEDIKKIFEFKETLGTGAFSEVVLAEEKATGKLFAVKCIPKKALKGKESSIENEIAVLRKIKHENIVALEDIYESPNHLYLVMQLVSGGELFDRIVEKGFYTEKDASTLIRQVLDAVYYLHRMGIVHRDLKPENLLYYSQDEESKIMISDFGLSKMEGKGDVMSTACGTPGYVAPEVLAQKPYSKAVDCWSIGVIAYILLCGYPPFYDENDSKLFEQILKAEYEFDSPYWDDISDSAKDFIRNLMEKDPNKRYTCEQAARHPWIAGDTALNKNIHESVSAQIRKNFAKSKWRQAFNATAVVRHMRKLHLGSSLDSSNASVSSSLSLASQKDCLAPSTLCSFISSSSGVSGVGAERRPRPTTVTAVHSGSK

ΔTm [°C] | Structure (SMILES)
1.1 | CC(C)c1cc(/C=C(\C#N)C(=O)NCCCc2ccccc2)cc(C(C)C)c1O
-2.2 | CC(C)(C)c1cc(C=C2C(=O)C=CC2=O)cc(C(C)(C)C)c1O

biological target: Death-associated protein kinase 3 (Homo sapiens) (UniProt O43293)
Sequence (O43293 whole entry, looked up): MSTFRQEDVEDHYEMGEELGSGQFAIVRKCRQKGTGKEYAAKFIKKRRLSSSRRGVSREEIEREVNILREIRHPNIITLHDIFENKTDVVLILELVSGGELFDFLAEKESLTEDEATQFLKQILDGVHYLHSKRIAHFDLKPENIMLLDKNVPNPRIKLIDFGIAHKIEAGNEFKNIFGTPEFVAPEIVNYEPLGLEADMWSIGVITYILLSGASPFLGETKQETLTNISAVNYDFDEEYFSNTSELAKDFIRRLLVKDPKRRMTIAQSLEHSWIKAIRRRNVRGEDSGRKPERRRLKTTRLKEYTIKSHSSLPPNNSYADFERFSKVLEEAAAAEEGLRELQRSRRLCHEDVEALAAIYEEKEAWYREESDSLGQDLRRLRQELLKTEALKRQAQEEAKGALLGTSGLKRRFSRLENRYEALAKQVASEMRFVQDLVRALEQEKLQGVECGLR

Structure (SMILES) | ΔTm [°C]
CC(C)c1cc(/C=C(\C#N)C(=O)NCCCc2ccccc2)cc(C(C)C)c1O | 0.7
CC(C)(C)c1cc(C=C2C(=O)C=CC2=O)cc(C(C)(C)C)c1O | -0.4

biological target: Dual specificity mitogen-activated protein kinase kinase 2 (Homo sapiens, UniProt P36507)

ΔTm [°C] | Structure (SMILES)
0.3 | CC(C)c1cc(/C=C(\C#N)C(=O)NCCCc2ccccc2)cc(C(C)C)c1O
-1.2 | CC(C)(C)c1cc(C=C2C(=O)C=CC2=O)cc(C(C)(C)C)c1O

biological target: Cyclin-dependent kinase 2 (Homo sapiens, UniProt P24941)

ΔTm [°C] | Structure (SMILES)
1.2 | CC(C)c1cc(/C=C(\C#N)C(=O)NCCCc2ccccc2)cc(C(C)C)c1O
1.2 | CC(C)(C)c1cc(C=C2C(=O)C=CC2=O)cc(C(C)(C)C)c1O

biological target: T4, Lymphokine-activated killer T-cell-originated protein kinase (Homo sapiens) (UniProt Q96KB5)
T4 sequence (whole entry): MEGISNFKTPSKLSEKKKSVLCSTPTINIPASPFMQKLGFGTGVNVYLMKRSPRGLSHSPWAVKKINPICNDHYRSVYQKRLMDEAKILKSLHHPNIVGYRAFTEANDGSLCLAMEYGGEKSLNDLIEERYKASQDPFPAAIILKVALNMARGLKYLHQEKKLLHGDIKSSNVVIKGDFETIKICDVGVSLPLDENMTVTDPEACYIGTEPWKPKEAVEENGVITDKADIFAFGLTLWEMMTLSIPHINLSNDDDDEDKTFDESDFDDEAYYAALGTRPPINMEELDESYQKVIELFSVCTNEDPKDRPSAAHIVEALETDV

Structure (SMILES) | ΔTm [°C]
CC(C)c1cc(/C=C(\C#N)C(=O)NCCCc2ccccc2)cc(C(C)C)c1O | -0.2
CC(C)(C)c1cc(C=C2C(=O)C=CC2=O)cc(C(C)(C)C)c1O | -0.1
